Like-named read-outs stand apart in the source and are kept apart here.
Tests used:
[1] = test system: morphine physical dependence; assay: Morphine physical dependence (naloxone-precipitated withdrawal signs); format: in vivo, rat (male Sprague Dawley)
Protocol: (§1) Adult male Sprague Dawley (226-275 g) were purchased from Taconic Laboratories and maintained on a 12-hour/12-hour light/dark cycle with the lights off at 9:30 a.m. in a temperature- and humidity-controlled animal care facility. For the duration of the experiment, rats were housed two per cage and given unrestricted access to food and water at all times when in the home cage.
Rats were implanted (SC, flank area) with 75 mg morphine pellets that remained intact for 7 days. Beginning on the day of pellet implantation, rats received daily injections of saline or RAP-103 (0.001, 0.1 or 1 mg/kg, IP, delivered in […]) throughout chronic morphine exposure. On the test day, rats were transported to the testing room and allowed to acclimate for 60 min before naloxone hydrochloride (10 mg/kg, IP, delivered in a 1 ml/kg volume) was injected to precipitate withdrawal signs. Immediately after naloxone administration, rats were placed into individual observation boxes and observed for 60 min. A modified version of the Gellet-Holtzman scale was used to grade withdrawal signs. Wet dog shakes, teeth chattering, eye blinks, and paw tremor were evaluated as the number of qualitatively observed occurrences over the 60-min test time.
Respiratory depression data were analyzed by two-way ANOVA (RAP-103 pretreatment×morphine treatment) followed by a Bonferroni's multiple comparison test. Physical dependence data were analyzed by a Student's t-test. Self-administration (SA) time-course data for heroin and sucrose were analyzed by two-way ANOVA (RAP-103 treatment x day) followed by a Bonferroni's multiple comparison test. SA PR challenge data were analyzed by a Student's t-test. Protein and mRNA data were analyzed by two-way ANOVA (RAP-103 pretreatment x morphine treatment) followed by a Newman-Keuls post-hoc analysis. In all cases, P<0.05 was considered statistically significant.

[2] = test system: CCR2; conditions: cited from earlier work
[3] = test system: CXCR4; conditions: cited from earlier work
[4] = test system: sucrose self-administration; assay: Sucrose self-administration (FR and PR); format: in vivo, rat (male Sprague Dawley); conditions: RAP-103 1 mg/kg IP; P>0.05 vs saline
From the text: as §1
Progressive ratio (PR) schedules of drug delivery are used to determine the ‘motivational’ state of an animal and drug reinforcing efficacy. A progressive ratio (PR) schedule requires the subject to perform an increasing number of lever presses for the next successive presentation of a reinforcer (e.g., heroin or sucrose). […] BP is a dependent measure used to quantify the degree to which the subject will work to get the next administration of the drug which serves as a reinforcer in the self-administration paradigm. […]
Subjects were given access to self-administer sucrose pellets for 12-14 d for 2 h each day. […] All responses were recorded using the Med-Associates software. […]
Respiratory depression data were analyzed by two-way ANOVA (RAP-103 pretreatment×morphine treatment) followed by a Bonferroni's multiple comparison test. Physical dependence data were analyzed by a Student's t-test. […] SA PR challenge data were analyzed by a Student's t-test. […]

[5] = test system: morphine-induced respiratory depression
[6] = format: in vivo, rats and guinea pigs
[7] = test system: tyrosine hydroxylase (TH); assay: TH protein levels in mesolimbic pathway, morphine abstinence (Western blot); format: in vivo, rat; conditions: RAP-103 + morphine, vs drug-naïve (P<0.05) and morphine only (P<0.01)
Protocol: For 10 d, rats were given two injections during the dark cycle. One injection (RAP-103 [1 mg/kg] or saline) was delivered IP, and 5 min later the second injection (morphine [5 mg/kg] or saline) was given SC. Brain tissue was collected 24 h after the last morphine or saline injection for protein analysis of chemokine and opioid markers in the ventral tegmental area (VTA), nucleus accumbens (NAC) and prefrontal cortex (PFC).
For immunoblotting experiments, tissue lysates were obtained using RIPA buffer, and were then homogenized. Samples were centrifuged for 15 minutes at 12,000 g. Supernatant were transferred to new tubes. […] Immunoreactive bands were quantified by Image Studio (Licor Ver 2.0) and normalized to the bands of GAPDH. […]
Respiratory depression data were analyzed by two-way ANOVA (RAP-103 pretreatment×morphine treatment) followed by a Bonferroni's multiple comparison test. Physical dependence data were analyzed by a Student's t-test. Self-administration (SA) time-course data for heroin and sucrose were analyzed by two-way ANOVA (RAP-103 treatment x day) followed by a Bonferroni's multiple comparison test. SA PR challenge data were analyzed by a Student's t-test. Protein and mRNA data were analyzed by two-way ANOVA (RAP-103 pretreatment x morphine treatment) followed by a Newman-Keuls post-hoc analysis. […]

[8] = format: in vivo, Rhesus macaque (Macaca mulatta)
Protocol: In non-human primates (rhesus monkeys) RAP-103 was dosed once on Day 1 by intravenous bolus injection at 1 mg/kg and plasma levels determined. […] Drug in plasma after a single IV dose (1 mg/Kg) was still measurable at anticipated therapeutic levels 96 hrs. post-dose in non-human primates as shown in FIG. 10B.

[9] = RAP-103 0.001, 0.1 mg/kg IP, P>0.05, reduced trend
[10] = RAP-103 1, 3 mg/kg IP in morphine-naïve rats vs saline, P>0.05
[11] = RAP-103 1 or 3 mg/kg IP 30 min before morphine 5 mg/kg SC, 60 min

D-Thr-D-Thr-D-Asn-D-Tyr-D-Thr [RAP-103]
naloxone-precipitated eye blinking [1, 9]: did not significantly impact | naloxone-precipitated wet dog shakes [1, 9]: did not significantly impact | reduction of frequency of wet dog shakes ([1]; RAP-103 1 mg/kg IP daily, morphine 75 mg pellet 7 d, naloxone 10 mg/kg IP, P<0.01): approximately 43% | reduction of frequency of eye blinking ([1]; RAP-103 1 mg/kg IP daily, morphine 75 mg pellet 7 d, naloxone 10 mg/kg IP, P<0.05): approximately 59% | paw tremor ([1]; any dose of RAP-103): not affected | teeth chattering ([1]; any dose of RAP-103): not affected | inhibition of chemokine ligand binding, CCR2 [2]: at least partially inhibits | inhibition of chemokine ligand binding, CXCR4 [3]: at least partially inhibits | sucrose PR breakpoints [4]: not significantly different | sucrose-taking (FR-1 SA) [4]: not significantly different | respiratory rate ([5]; RAP-103 1 mg/kg IP before morphine 5 mg/kg SC): abolished | cumulative respiratory rate ([5]; RAP-103 3 mg/kg IP before morphine 5 mg/kg SC, 60 min, P<0.01): normalized the morphine-induced increase in respiratory rate | SpO2, RAP-103 by itself [5, 10]: did not produce effects on SpO2 | respiratory rate, RAP-103 by itself [5, 10]: did not produce effects on respiratory rate | oxygen saturation (FIGS. 1A-1B) [5, 11]: prevented the deficit in oxygen saturation | respiratory rate (FIGS. 2A-2B) [5, 11]: prevented the increase in respiratory rate | persistence at therapeutic levels in brain ([6]; IV or oral gavage, rats and guinea pigs (FIG. 10A)): at least 24 hrs | brain entry compared to plasma levels ([6]; in vivo): preferentially enters the brain | TH protein levels, PFC [7]: significantly elevated | AUC 0-T, male vs female ([8]; intravenous bolus 1 mg/kg): comparable in male and female monkeys | Cmax, male vs female ([8]; intravenous bolus 1 mg/kg): comparable in male and female monkeys | absolute bioavailability ([8]; males, 1 mg/kg, rhesus monkeys): 89% | oral bioavailability ([8]; non-human primates (Rhesus macaque), 1 mg/kg): 88% | oral bioavailability ([8]; primates, 1 mg/kg): > 88% | time drug in plasma still measurable at anticipated therapeutic levels ([8]; single IV dose 1 mg/kg, post-dose): ≥ 96 h
